PubChem BioAssay AID1592 (Sanford-Burnham Center for Chemical Genomics, 2009)
Activity calls are given as the source filed them.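 The calls were made as follows: active = less than 90% of the starting compound still present after 180 minutes in mouse plasma; inactive = 90% or more still present.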

Tested on: mouse plasma stability, LC/MS/MS, 180 min
Experiment: mouse plasma degradation, percent remaining – biochemical, LC/MS/MS, 180 min, dry powder, ADME assay, late-stage follow-up (AID 1592)
Conditions: at 1 µM; stronger effect = lower value

percent remaining: 93.2% (inactive)
SMILES: C=CCn1c(SCC(=O)c2ccc(O)c(O)c2)nnc1-c1ccccc1OC
